Data reported in patent publication US11358956B2, “Compounds containing polysubstituted benzo[d][1,3]oxathiole, benzo[d][1,3]oxathiole 3-oxide or benzo[d][1,3]oxathiole 3,3-dioxide and methods/uses thereof as agonists of G protein-coupled receptor 119” (PRAMANA PHARMACEUTICALS INC., priority 2017, dated 2022).
Like-named read-outs stand apart in the source and are kept apart here.

Assays:
human GPR119 receptor [1] = biological target: T1, human GPR119 receptor (Homo sapiens, UniProt Q8TDV5); assay: LANCE Ultra cAMP assay: stimulation of GPR119-mediated cAMP production in CHO cells stably expressing human GPR119 receptor; format: cell-based
T1 construct: host or cells: CHO
T1 sequence (Q8TDV5 1-335): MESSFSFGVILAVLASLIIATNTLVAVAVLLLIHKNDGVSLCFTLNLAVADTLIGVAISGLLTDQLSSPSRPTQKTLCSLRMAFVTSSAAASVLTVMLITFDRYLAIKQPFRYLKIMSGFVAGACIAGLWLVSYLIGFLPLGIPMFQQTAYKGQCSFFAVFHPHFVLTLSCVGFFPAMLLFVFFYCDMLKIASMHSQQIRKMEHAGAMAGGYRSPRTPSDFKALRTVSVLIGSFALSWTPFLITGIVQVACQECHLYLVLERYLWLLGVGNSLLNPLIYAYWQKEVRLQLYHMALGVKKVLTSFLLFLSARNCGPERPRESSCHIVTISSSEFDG
Description: The potency of GPR119 receptor agonists was assessed by measuring the stimulation of GPR119-mediated cAMP production with LANCE Ultra cAMP assay (Perkin Elmer, TRF0264) in CHO cells stably expressing human GPR119 receptor (Chantest, cat. #A633). CHO-GPR119 cells were cultured in DMEM/F12 medium supplemented with 10% FBS and 1% NEAA at 37° C., 5% CO2, aliquoted and frozen in liquid nitrogen.
For assay, cells were thawed in a water bath at 37° C., washed in Hank's Balanced Salt Solution (HBSS) and resuspended in Stimulation Buffer 1 (SB1) for 30 min: 5 mM HEPES, pH 7.2-7.4, 0.1% BSA in HBSS. […] The ULight-anti-cAMP antibody (Perkin Elmer, TRF0264) was added to the cell suspension making Mix [Cell suspension/4× ULight-anti-cAMP antibodies]. The resulting cell suspension Mix was plated to 384-well assay plates (Corning, white low volume, #3674) 5 µL/well. The assay plate was centrifuged 200 g, 5 sec.
Serial dilution (100×) of tested compounds were prepared in DMSO in the range of from 30 nM to 1 mM with half-log step in 384-well plates (Greiner, 781280) using Biomek 2000. 10 test concentrations in two repeats were prepared for each CRC. It was diluted 50 times in SB1 and each tested concentration was added to cells in the assay plate—5 µL/well. The assay plate was incubated 30 minutes at room temperature on a shaker, 250 rpm to allow GPR119 receptor stimulation. The cAMP level was determined according to the standard kit supplier protocol (PerkinElmer, cat. #TRF0264).
The stock solution of the Eu-cAMP tracer (Perkin Elmer, TRF0264) was diluted 1:100 in cAMP Detection Buffer (Perkin Elmer, TRF0264), making 2× working concentration and added to the assay plate, 10 μL per well. Assay plate was centrifuged 180 g, 1 sec. Then the assay plate was incubated for 60′ at room temperature on shaker, 250 rpm to allow cAMP detection. The TR-FRET signal was measured at Ex-340 nm/Em-615 and Ex-340 nm/Em-665 nm on the reader Tecan M1000. 0% of cAMP stimulation corresponds to the cells with DMSO only, 100% of cAMP stimulation corresponds to the cells with […] Forskolin. The EC50 value defined as the concentration of the drug that gives half-maximal response, were calculated using GraphPad Prizm 5.0 software with forskolin was used as references at each test. Entries 1-17 in Table 2A and entries 1-14 in Table 2B show the biological activity of certain representative compounds using the protocol as described above.

human GPR119 receptor [2] = biological target: T1, human GPR119 receptor; assay: as above; format: cell-based; conditions: read-out: % cAMP Max. relative to forscolin
[3] = Table 2A entries 1-17, protocol as described (800,000 cells/mL suspension), CHO-GPR119 cells
[4] = Table 2C entries 1-4, modified protocol, 500 cells/well

| SMILES | EC50 (human GPR119 receptor [1]; [3]) [µM] | Emax (human GPR119 receptor [2]; Table 2A entries 1-17, protocol as described, 100% = cells with Forskolin, 0% = DMSO only) [%] | EC50 (human GPR119 receptor [1]; [4]) [µM] | Emax (human GPR119 receptor [2]; [4]) [%] |
| --- | --- | --- | --- | --- |
| NCC(=O)N1CCC(COc2ccc(-c3ccc4c(c3)OCS4(=O)=O)cc2F)CC1 [Example A-17] | 10 | – | – | – |
| NC(=O)N1CCC(COc2ccc(-c3ccc4c(c3)OCS4(=O)=O)cc2F)CC1 [Example A-20] | 10 | – | – | – |
| O=C(O)CN1CCC(COc2ccc(-c3ccc4c(c3)OCS4(=O)=O)cc2F)CC1 [Example A-23, 2-(4-((4-(3,3-Dioxido-2H-benzo[d][1,3]oxathiol-6-yl)-2-fluorophenyoxy) Methyl)-piperidin-1-yl)acetic Acid] | 7.04 | 66 | – | – |
| CC1(C)Oc2cc(-c3ccc(OCC4CCN(c5ncc(Cl)cn5)CC4)c(F)c3)ccc2S1(=O)=O [Example C-5, 5-chloro-2-(4-{[4-(2,2-dimethyl-3,3-dioxido-1,3-benzoxathiol-6-yl)-2-fluorophenoxy]methyl}piperidin-1-yl)pyrimidine] | – | – | 0.0686 | 81 |
| O=S1(=O)c2ccc(-c3ccc(OCC4CCN(c5ncc(Cl)cn5)CC4)c(F)c3)cc2OC12CCCC2 [Example C-8, 5-chloro-2-(4-{[4-(3,3-dioxidospiro[1,3-benzoxathiole-2,1′-cyclopentan]-6-yl)-2-fluorophenoxy]methyl}piperidin-1-yl)pyrimidine] | – | – | 0.114 | 66 |
| O=S1(=O)c2ccc(-c3ccc(OCC4CCN(c5ncc(Cl)cn5)CC4)c(F)c3)cc2OC12CCCCC2 [Example C-11, 5-chloro-2-(4-{[4-(3,3-dioxidospiro[1,3-benzoxathiole-2,1′-cyclohexan]-6-yl)-2-fluorophenoxy]methyl}piperidin-1-yl)pyrimidine] | – | – | 0.033 | 25 |
| O=S1(=O)c2ccc(-c3ccc(OCC4CCN(c5ncc(Cl)cn5)CC4)c(F)c3)cc2OC12CCC2 [Example C-14, 5-chloro-2-(4-{[4-(3,3-dioxidospiro[1,3-benzoxathiole-2,1′-cyclobutan]-6-yl)-2-fluorophenoxy]methyl}piperidin-1-yl)pyrimidine] | – | – | 0.0298 | 67 |
